Test results published in PubChem BioAssay AID256 (DTP/NCI, 2004).
Several values for one entry are separate records, joined by “and”; a condition that tells them apart may be missing. Equal values may be shown once. Inconclusive results and toxic doses are left out.

Tested on: CD2F1 mice, L1210 leukemia ip, survival T/C
Assay: NCI In Vivo Anticancer Drug Screen. Data for tumor model L1210 Leukemia (intraperitoneal) in CD2F1 (CDF1) mice
Details: higher = longer survival
In short: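 Vehicle-treated tumor-bearing mice served as controls (C) for compound-treated mice (T). Reported figure is T divided by C.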

[1] = endpoint: mean survival time, dose: 100.0 mg/kg/injection, schedule: Q04DX002 (ip), vehicle: saline with Tween-80
[2] = endpoint: mean survival time, dose: 200.0 mg/kg/injection, schedule: Q04DX002 (ip), vehicle: saline with Tween-80
[3] = endpoint: mean survival time, dose: 25.0 mg/kg/injection, schedule: Q01DX009 (ip), vehicle: Klucel (hydroxypropylcellulose) (HPC)
[4] = endpoint: mean survival time, dose: 50.0 mg/kg/injection, schedule: Q01DX009 (ip), vehicle: Klucel (hydroxypropylcellulose) (HPC)
[5] = endpoint: mean survival time, dose: 100.0 mg/kg/injection, schedule: Q01DX009 (ip), vehicle: Klucel (hydroxypropylcellulose) (HPC)
[6] = endpoint: mean survival time, dose: 200.0 mg/kg/injection, schedule: Q01DX009 (ip), vehicle: Klucel (hydroxypropylcellulose) (HPC)
[7] = endpoint: mean survival time, dose: 400.0 mg/kg/injection, schedule: Q01DX009 (ip), vehicle: Klucel (hydroxypropylcellulose) (HPC)
[8] = endpoint: mean survival time, dose: 100.0 mg/kg/injection, schedule: Q01DX009 (ip), vehicle: saline with Tween-80
[9] = endpoint: mean survival time, dose: 100.0 mg/kg/injection, schedule: Q04DX003 (ip), vehicle: saline with Tween-80
[10] = endpoint: mean survival time, dose: 200.0 mg/kg/injection, schedule: Q01DX009 (ip), vehicle: saline with Tween-80
[11] = endpoint: mean survival time, dose: 200.0 mg/kg/injection, schedule: Q04DX003 (ip), vehicle: saline with Tween-80
[12] = endpoint: mean survival time, dose: 400.0 mg/kg/injection, schedule: Q01DX009 (ip), vehicle: saline with Tween-80
[13] = endpoint: mean survival time, dose: 400.0 mg/kg/injection, schedule: Q04DX003 (ip), vehicle: saline with Tween-80
[14] = endpoint: mean survival time, dose: 100.0 mg/kg/injection, schedule: Q04DX003 (ip), vehicle: saline
[15] = endpoint: mean survival time, dose: 200.0 mg/kg/injection, schedule: Q04DX003 (ip), vehicle: saline
[16] = endpoint: mean survival time, dose: 400.0 mg/kg/injection, schedule: Q04DX003 (ip), vehicle: saline
[17] = endpoint: mean survival time, dose: 50.0 mg/kg/injection, schedule: Q01DX009 (ip), vehicle: saline with Tween-80
[18] = endpoint: mean survival time, dose: 100.0 mg/kg/injection, schedule: Q01DX001 (ip), vehicle: saline with Tween-80
[19] = endpoint: mean survival time, dose: 200.0 mg/kg/injection, schedule: Q01DX001 (ip), vehicle: saline with Tween-80
[20] = endpoint: mean survival time, dose: 25.0 mg/kg/injection, schedule: Q01DX001 (ip), vehicle: saline with Tween-80
[21] = endpoint: mean survival time, dose: 50.0 mg/kg/injection, schedule: Q01DX001 (ip), vehicle: saline with Tween-80
[22] = endpoint: mean survival time, dose: 400.0 mg/kg/injection, schedule: Q04DX002 (ip), vehicle: saline with Tween-80

## O=S(=O)(O)c1cc(O)ccc1O.O=S(=O)(O)c1cc(O)ccc1O.[NH-]C1CCCCC1[NH-].[Pt+2]
endpoint: median survival time, dose: 6.25 mg/kg/injection, schedule: Q04DX003 (ip), vehicle: saline
  T/C: 117 % of control
endpoint: median survival time, dose: 12.5 mg/kg/injection, schedule: Q04DX003 (ip), vehicle: saline
  T/C: 123 % of control
endpoint: median survival time, dose: 25.0 mg/kg/injection, schedule: Q04DX003 (ip), vehicle: saline
  T/C: 162 % of control
endpoint: median survival time, dose: 50.0 mg/kg/injection, schedule: Q04DX003 (ip), vehicle: saline
  T/C: 150 % of control and 337 % of control
endpoint: median survival time, dose: 100.0 mg/kg/injection, schedule: Q04DX003 (ip), vehicle: saline
  T/C: 235 % of control and 375 % of control

## Nc1ncnc(N2C(=S)OC3C(O)C(CO)OC32)c1N (configuration not stated)
endpoint: mean survival time, dose: 12.5 mg/kg/injection, schedule: Q01DX005 (ip), vehicle: water
  T/C: 92 % of control
endpoint: mean survival time, dose: 25.0 mg/kg/injection, schedule: Q01DX005 (ip), vehicle: water
  T/C: 88 % of control
endpoint: mean survival time, dose: 50.0 mg/kg/injection, schedule: Q01DX005 (ip), vehicle: water
  T/C: 95 % of control
endpoint: mean survival time, dose: 100.0 mg/kg/injection, schedule: Q01DX005 (ip), vehicle: water
  T/C: 95 % of control
endpoint: mean survival time, dose: 200.0 mg/kg/injection, schedule: Q01DX005 (ip), vehicle: water
  T/C: 90 % of control

## OC(CC1CCCC(CC(O)c2ccccc2)N1CCc1ccccc1)c1ccccc1 (configuration not stated)
endpoint: mean survival time, dose: 75.0 mg/kg/injection, schedule: Q01DX001 (ip), vehicle: saline
  T/C: 97 % of control
endpoint: mean survival time, dose: 150.0 mg/kg/injection, schedule: Q01DX001 (ip), vehicle: saline
  T/C: 91 % of control

## O=c1c2cccc3cccc(c32)c2c3c(nn12)CCCC3
endpoint: mean survival time, dose: 12.5 mg/kg/injection, schedule: Q04DX002 (ip), vehicle: saline with Tween-80
  T/C: 102 % of control
endpoint: mean survival time, dose: 25.0 mg/kg/injection, schedule: Q04DX002 (ip), vehicle: saline with Tween-80
  T/C: 98 % of control
endpoint: mean survival time, dose: 50.0 mg/kg/injection, schedule: Q04DX002 (ip), vehicle: saline with Tween-80
  T/C: 94 % of control

## COC[C@H]1OC(=O)c2coc3c2[C@@]1(C)C1=C(C3=O)[C@@H]2CCC(=O)[C@@]2(C)C[C@H]1OC(C)=O
endpoint: mean survival time, dose: 0.16 mg/kg/injection, schedule: Q01DX009 (ip), vehicle: saline
  T/C: 102 % of control
endpoint: mean survival time, dose: 0.31 mg/kg/injection, schedule: Q01DX009 (ip), vehicle: saline
  T/C: 98 % of control
endpoint: mean survival time, dose: 0.63 mg/kg/injection, schedule: Q01DX009 (ip), vehicle: saline
  T/C: 102 % of control
endpoint: mean survival time, dose: 1.25 mg/kg/injection, schedule: Q01DX009 (ip), vehicle: saline with Tween-80
  T/C: 86 % of control
endpoint: mean survival time, dose: 1.25 mg/kg/injection, schedule: Q01DX009 (ip), vehicle: saline
  T/C: 110 % of control

## COC(=O)C1C(=O)CC2N(C)C1C(C)(C)C2(C)C (configuration not stated)
[1]
  T/C: 115 % of control
[2]
  T/C: 107 % of control

## CNC(=O)c1n[nH]c(C)c1[N+](=O)[O-]
[3]
  T/C: 107 % of control
[4]
  T/C: 107 % of control
[5]
  T/C: 107 % of control
[6]
  T/C: 104 % of control
[7]
  T/C: 102 % of control

## CC1OC(C)(C)OC1C(=O)O (configuration not stated)
[3]
  T/C: 92 % of control
[4]
  T/C: 86 % of control

## O=[N+]([O-])c1cc(C(F)(F)F)cc([N+](=O)[O-])c1Cl
endpoint: mean survival time, dose: 1.56 mg/kg/injection, schedule: Q04DX003 (ip), vehicle: Klucel (hydroxypropylcellulose) (HPC)
  T/C: 98 % of control and 101 % of control
endpoint: mean survival time, dose: 3.12 mg/kg/injection, schedule: Q04DX003 (ip), vehicle: Klucel (hydroxypropylcellulose) (HPC)
  T/C: 98 % of control and 102 % of control
endpoint: mean survival time, dose: 6.25 mg/kg/injection, schedule: Q04DX003 (ip), vehicle: Klucel (hydroxypropylcellulose) (HPC)
  T/C: 95 % of control and 98 % of control
endpoint: mean survival time, dose: 12.5 mg/kg/injection, schedule: Q04DX003 (ip), vehicle: Klucel (hydroxypropylcellulose) (HPC)
  T/C: 90 % of control and 98 % of control

## Nc1ccc(-c2ccc(N)c([N+](=O)[O-])c2)cc1[N+](=O)[O-]
[8]
  T/C: 98 % of control
[9]
  T/C: 86 % of control
[10]
  T/C: 94 % of control
[11]
  T/C: 89 % of control
[12]
  T/C: 95 % of control
[13]
  T/C: 86 % of control

## O=P(O)(O)OCC(O)CCl (configuration not stated)
endpoint: mean survival time, dose: 100.0 mg/kg/injection, schedule: Q01DX009 (ip), vehicle: saline
  T/C: 96 % of control
[14]
  T/C: 100 % of control
endpoint: mean survival time, dose: 200.0 mg/kg/injection, schedule: Q01DX009 (ip), vehicle: saline
  T/C: 92 % of control
[15]
  T/C: 91 % of control
[16]
  T/C: 103 % of control

## N#CCCOc1ccc(Cl)cc1
[17]
  T/C: 107 % of control
[8]
  T/C: 97 % of control
[10]
  T/C: 96 % of control

## CCOC(=O)C1OC1(C)c1ccc(Cl)cc1 (configuration not stated)
endpoint: mean survival time, dose: 100.0 mg/kg/injection, schedule: Q04DX003 (ip), vehicle: other
  T/C: 95 % of control
endpoint: mean survival time, dose: 200.0 mg/kg/injection, schedule: Q04DX003 (ip), vehicle: other
  T/C: 110 % of control
endpoint: mean survival time, dose: 400.0 mg/kg/injection, schedule: Q04DX003 (ip), vehicle: other
  T/C: 96 % of control

## O/N=C1/C2CCC(C2)C1C(O)(C(F)(F)F)C(F)(F)F (configuration not stated)
[17]
  T/C: 93 % of control
[18]
  T/C: 102 % of control
[8]
  T/C: 101 % of control
[19]
  T/C: 92 % of control
[10]
  T/C: 89 % of control

## O=[N+]([O-])c1ccc2[nH]c3c(c2c1)CSCC3
[5]
  T/C: 121 % of control
[6]
  T/C: 97 % of control
[7]
  T/C: 92 % of control

## O=C1OC(CBr)CC1(c1ccccc1)c1ccccc1 (configuration not stated)
[18]
  T/C: 95 % of control
[8]
  T/C: 102 % of control
[19]
  T/C: 100 % of control
[10]
  T/C: 100 % of control
endpoint: mean survival time, dose: 400.0 mg/kg/injection, schedule: Q01DX001 (ip), vehicle: saline with Tween-80
  T/C: 100 % of control
[12]
  T/C: 102 % of control

## CCCCCCCP(=O)(CCCCCCC)CCCCCCC
[20]
  T/C: 107 % of control
[21]
  T/C: 96 % of control
[18]
  T/C: 100 % of control

## CCN(CCNC(=O)Nc1ccccc1OC)c1ccccc1
[1]
  T/C: 98 % of control
[2]
  T/C: 94 % of control
[22]
  T/C: 94 % of control

## CN(C)c1nc(N)cc(-c2ccncc2)n1
endpoint: mean survival time, dose: 100.0 mg/kg/injection, schedule: Q04DX002 (ip), vehicle: saline
  T/C: 96 % of control
endpoint: mean survival time, dose: 200.0 mg/kg/injection, schedule: Q04DX002 (ip), vehicle: saline
  T/C: 88 % of control

## OCC(Cl)(Cl)Cl
[9]
  T/C: 93 % of control
[11]
  T/C: 97 % of control
[13]
  T/C: 101 % of control

## CCc1ccc(CC)c(CC)c1CC
[17]
  T/C: 98 % of control
[8]
  T/C: 95 % of control
[9]
  T/C: 98 % of control
[10]
  T/C: 92 % of control
[11]
  T/C: 104 % of control

## CN(C)c1ccc(CN2CCCN(Cc3ccc(N(C)C)cc3)C2c2cc(Cl)ccc2O)cc1
[8]
  T/C: 86 % of control
[9]
  T/C: 98 % of control
[10]
  T/C: 93 % of control
[11]
  T/C: 92 % of control
[12]
  T/C: 86 % of control
[13]
  T/C: 92 % of control

## CC1(C)COC(Cc2ccccc2Br)=N1
[14]
  T/C: 101 % of control
[15]
  T/C: 93 % of control
[16]
  T/C: 93 % of control

## S=C1OC(c2ccccc2)(c2ccccc2)c2ccsc21
[20]
  T/C: 95 % of control
[21]
  T/C: 95 % of control

## O=C1OC(=O)C2CC(Br)C(Br)CC12 (configuration not stated)
[8]
  T/C: 95 % of control
[10]
  T/C: 98 % of control
[12]
  T/C: 91 % of control

## O=C1NC(=O)C(Cc2ccccc2)C(=O)N1
[17]
  T/C: 92 % of control
[8]
  T/C: 96 % of control
[10]
  T/C: 96 % of control

## CNCC(=O)NCCCCCCCCCCNC(=O)CNC
endpoint: mean survival time, dose: 12.5 mg/kg/injection, schedule: Q01DX010 (ip), vehicle: saline
  T/C: 100 % of control
endpoint: mean survival time, dose: 25.0 mg/kg/injection, schedule: Q01DX010 (ip), vehicle: saline
  T/C: 101 % of control
endpoint: mean survival time, dose: 50.0 mg/kg/injection, schedule: Q01DX010 (ip), vehicle: saline
  T/C: 97 % of control
endpoint: mean survival time, dose: 100.0 mg/kg/injection, schedule: Q01DX010 (ip), vehicle: saline
  T/C: 95 % of control

## CCCCCCCCCCCCOc1ccc(F)cc1C
[1]
  T/C: 93 % of control
[2]
  T/C: 93 % of control
[22]
  T/C: 96 % of control

## CCCCCCCCCc1ccc(OCCOCCOCCOCCOCCOCCOCCOCCOCCOC(C)N2CCCC2=O)cc1 (configuration not stated)
endpoint: mean survival time, dose: 25.0 mg/kg/injection, schedule: Q01DX009 (ip), vehicle: saline with Tween-80
  T/C: 96 % of control
endpoint: mean survival time, dose: 50.0 mg/kg/injection, schedule: Q04DX003 (ip), vehicle: saline with Tween-80
  T/C: 108 % of control
[9]
  T/C: 93 % of control
